# Results published in US10787451B2, “Crystalline form of GnRH receptor antagonist and preparation method therefor” (Jiangsu Hengrui Medicine Co., Ltd., priority 2016, dated 2020).
# “Also recorded” adds a separate entry of the source.
# What was measured:
# [1] = Stability test of crystal forms spread flat in the air under lighting, heating and high humidity (HPLC purity, XRPD); assay type: physicochemical; conditions: for purity as detected by HPLC, 40° C.: heating 40° C.; for purity as detected by HPLC, 40° C. / purity as detected by HPLC, 60° C. / purity as detected by HPLC, RH 75% / purity as detected by HPLC, RH 90% / purity as detected by HPLC, Lighting: spread flat in the air; for purity as detected by HPLC, 60° C.: heating 60° C.; for purity as detected by HPLC, RH 75%: high humidity RH 75%; for purity as detected by HPLC, RH 90%: high humidity RH 90%; for purity as detected by HPLC, Lighting: lighting (4500 Lux)
# Experimental: The product sample of crystal form I prepared in Example 1 and the product samples of crystal forms A, B, C and D prepared in Examples 12, 13, 14 and 15 were spread flat in the air to test sample stability under conditions of lighting (4500 Lux), heating (40° C., 60° C.), and high humidity (RH 75%, RH 90%). Samplings were carried out on Day 5 and Day 10.
# [2] = Special stability study of crystal form I (grinding, heating, tableting; XRPD and DSC); assay type: physicochemical
# Experimental: 1. Differential Scanning Calorimeter, DSC
# Instrument type: Mettler Toledo DSC 1 STAR^e System
# Heating rate: 10.0° C./min
# Temperature range: 40-300° C.
# 2. X-Ray Powder Diffraction, XRPD
# Instrument type: Bruker D8 Focus X-ray powder diffractometer
# Ray: monochromatic Cu-Kα ray (λ=1.5406)
# Scanning mode: θ/2θ, Scanning range: 2-40°
# Voltage: 40 kV, Electric current: 40 mA
# The sample of crystal form I of the compound of formula (I) prepared according to the method of Example 1 was ground, heated and tableted.
SMILES,"purity as detected by HPLC, 40° C. ([1]; Day 0)","purity as detected by HPLC, 40° C. ([1]; Day 5)","purity as detected by HPLC, 40° C. ([1]; Day 10)","purity as detected by HPLC, 60° C. ([1]; Day 0)","purity as detected by HPLC, 60° C. ([1]; Day 5)","purity as detected by HPLC, 60° C. ([1]; Day 10)","purity as detected by HPLC, RH 75% ([1]; Day 0)","purity as detected by HPLC, RH 75% ([1]; Day 5)","purity as detected by HPLC, RH 75% ([1]; Day 10)","purity as detected by HPLC, RH 90% ([1]; Day 0)","purity as detected by HPLC, RH 90% ([1]; Day 5)","purity as detected by HPLC, RH 90% ([1]; Day 10)","purity as detected by HPLC, Lighting ([1]; Day 0)","purity as detected by HPLC, Lighting ([1]; Day 5)","purity as detected by HPLC, Lighting ([1]; Day 10)",other results
"CONC(=O)Nc1ccc(-n2nc3c(c2CN(C)C)c(=O)n(-c2ccc(OC)nn2)c(=O)n3Cc2c(F)cccc2F)cc1 [Crystal form A, 1-(4-(7-(2,6-Difluorobenzyl)-3-((dimethylamino)methyl)-5-(6-methoxypyridazin-3-yl)-4,6-dioxo-4,5,6,7-tetrahydro-2H-pyrazolo[3,4-d]pyrimidin-2-yl)phenyl)-3-methoxy urea]",97.86%,97.50%,97.52%,97.86%,97.62%,97.50%,97.86%,97.61%,97.65%,97.86%,97.59%,97.79%,97.86%,97.27%,97.13%,–
"CONC(=O)Nc1ccc(-n2nc3c(c2CN(C)C)c(=O)n(-c2ccc(OC)nn2)c(=O)n3Cc2c(F)cccc2F)cc1 [Crystal form B, 1-(4-(7-(2,6-Difluorobenzyl)-3-((dimethylamino)methyl)-5-(6-methoxypyridazin-3-yl)-4,6-dioxo-4,5,6,7-tetrahydro-2H-pyrazolo[3,4-d]pyrimidin-2-yl)phenyl)-3-methoxy urea]",99.69%,99.45%,99.03%,99.69%,99.45%,99.34%,99.69%,99.52%,99.34%,99.69%,99.47%,99.34%,99.69%,99.39%,99.19%,–
"CONC(=O)Nc1ccc(-n2nc3c(c2CN(C)C)c(=O)n(-c2ccc(OC)nn2)c(=O)n3Cc2c(F)cccc2F)cc1 [Crystal form D, 1-(4-(7-(2,6-Difluorobenzyl)-3-((dimethylamino)methyl)-5-(6-methoxypyridazin-3-yl)-4,6-dioxo-4,5,6,7-tetrahydro-2H-pyrazolo[3,4-d]pyrimidin-2-yl)phenyl)-3-methoxy urea]",99.67%,99.44%,99.31%,99.67%,99.48%,99.40%,99.67%,99.57%,99.34%,99.67%,99.57%,99.39%,99.67%,99.43%,99.22%,–
"CONC(=O)Nc1ccc(-n2nc3c(c2CN(C)C)c(=O)n(-c2ccc(OC)nn2)c(=O)n3Cc2c(F)cccc2F)cc1 [Crystal form I, 1-(4-(7-(2,6-difluorobenzyl)-3-((dimethylamino)methyl)-5-(6-methoxypyridazin-3-yl)-4,6-dioxo-4,5,6,7-tetrahydro-2H-pyrazolo[3,4-d]pyrimidin-2-yl)phenyl)-3-methoxyurea]",99.36%,99.33%,99.41%,99.36%,99.24%,99.30%,99.36%,99.22%,99.31%,99.36%,99.27%,99.27%,99.36%,99.26%,99.20%,"crystal form by XRPD test after exposure ([1]; lighting, high humidity and high temperature, spread in the air): not changed; also recorded: unchanged; stability compared with crystal forms A, B, C and D ([1]; lighting, high humidity and high temperature, decrease of HPLC purity): significantly better; DSC peak ([2]; after grinding treatment for 10 minutes): 166.16 °C; DSC peak ([2]; after heating treatment for 3 hours at 80° C.): 168.36 °C; DSC peak ([2]; after tableting treatment): 168.97 °C; crystal form during grinding, heating and tableting procedure ([2]; grinding, heating and tableting): not changed"
"CONC(=O)Nc1ccc(-n2nc3c(c2CN(C)C)c(=O)n(-c2ccc(OC)nn2)c(=O)n3Cc2c(F)cccc2F)cc1 [Crystal form C, 1-(4-(7-(2,6-Difluorobenzyl)-3-((dimethylamino)methyl)-5-(6-methoxypyridazin-3-yl)-4,6-dioxo-4,5,6,7-tetrahydro-2H-pyrazolo[3,4-d]pyrimidin-2-yl)phenyl)-3-methoxy urea]",99.75%,99.57%,99.35%,99.75%,99.53%,99.47%,99.75%,99.51%,99.48%,99.75%,99.54%,99.38%,99.75%,98.30%,96.83%,–
